Experimental data as given in ChEMBL document CHEMBL3991601, “The target landscape of clinical kinase drugs” (Science, 2017).
Active and inactive are the calls of the source.

target: Serine/threonine-protein kinase/endoribonuclease IRE2 (Homo sapiens, UniProt Q76MJ5)
Note: in the data inactive means no Kd found up to 30 µM.

Sequence of Serine/threonine-protein kinase/endoribonuclease IRE2 (Q76MJ5 whole entry): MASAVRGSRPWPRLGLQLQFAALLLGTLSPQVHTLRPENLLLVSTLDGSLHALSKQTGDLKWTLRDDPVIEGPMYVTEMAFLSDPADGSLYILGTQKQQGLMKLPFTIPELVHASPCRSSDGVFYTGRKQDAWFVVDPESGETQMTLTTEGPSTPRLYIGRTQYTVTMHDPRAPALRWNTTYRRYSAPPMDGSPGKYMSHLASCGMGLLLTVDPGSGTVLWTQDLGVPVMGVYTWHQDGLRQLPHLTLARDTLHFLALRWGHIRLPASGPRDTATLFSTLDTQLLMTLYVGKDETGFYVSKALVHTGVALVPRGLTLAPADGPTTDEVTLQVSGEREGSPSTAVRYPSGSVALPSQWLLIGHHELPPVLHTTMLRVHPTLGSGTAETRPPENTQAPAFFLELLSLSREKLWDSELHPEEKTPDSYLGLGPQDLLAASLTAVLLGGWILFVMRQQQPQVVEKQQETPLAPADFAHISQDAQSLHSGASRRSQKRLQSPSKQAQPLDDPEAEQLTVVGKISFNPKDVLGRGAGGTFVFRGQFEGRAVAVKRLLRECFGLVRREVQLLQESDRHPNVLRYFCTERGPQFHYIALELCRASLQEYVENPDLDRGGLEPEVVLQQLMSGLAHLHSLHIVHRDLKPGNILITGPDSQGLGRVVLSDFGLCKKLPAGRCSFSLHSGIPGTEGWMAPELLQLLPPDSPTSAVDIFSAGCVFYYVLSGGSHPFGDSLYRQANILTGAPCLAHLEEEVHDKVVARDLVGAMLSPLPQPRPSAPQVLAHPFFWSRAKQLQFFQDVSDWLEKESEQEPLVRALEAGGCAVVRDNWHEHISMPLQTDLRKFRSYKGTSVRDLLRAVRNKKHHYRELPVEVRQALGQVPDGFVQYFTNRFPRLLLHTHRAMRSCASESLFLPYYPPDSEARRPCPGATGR

| Compound | Kd |
| --- | --- |
| N[C@@H]1CCCN(c2c(/C=C3\SC(=O)NC3=O)cccc2-c2ccccc2)C1 | > 30 µM (inactive) |
| CCN1CCN(Cc2ccc(-c3cc4c(N[C@H](C)c5ccccc5)ncnc4[nH]3)cc2)CC1 [AEE-788] | > 30 µM (inactive) |
| COc1cc(N2CCC(N3CCN(C)CC3)CC2)ccc1Nc1ncnc(Nc2ccccc2S(=O)(=O)C(C)C)n1 [ASP-3026] | > 30 µM (inactive) |
| CNS(=O)(=O)Nc1nccc(Cc2c(C)c3ccc(Oc4ncccn4)cc3oc2=O)c1F [AVUTOMETINIB] | > 30 µM (inactive) |
| Cc1cc([C@@H](C)Nc2ccccc2C(=O)O)c2nc(N3CCOCC3)cc(=O)n2c1 [AZD-6482] | > 30 µM (inactive) |

target: T1, Phosphatidylinositol 5-phosphate 4-kinase type-2 gamma (Homo sapiens, UniProt Q8TBX8)
T1 sequence (Q8TBX8 whole entry): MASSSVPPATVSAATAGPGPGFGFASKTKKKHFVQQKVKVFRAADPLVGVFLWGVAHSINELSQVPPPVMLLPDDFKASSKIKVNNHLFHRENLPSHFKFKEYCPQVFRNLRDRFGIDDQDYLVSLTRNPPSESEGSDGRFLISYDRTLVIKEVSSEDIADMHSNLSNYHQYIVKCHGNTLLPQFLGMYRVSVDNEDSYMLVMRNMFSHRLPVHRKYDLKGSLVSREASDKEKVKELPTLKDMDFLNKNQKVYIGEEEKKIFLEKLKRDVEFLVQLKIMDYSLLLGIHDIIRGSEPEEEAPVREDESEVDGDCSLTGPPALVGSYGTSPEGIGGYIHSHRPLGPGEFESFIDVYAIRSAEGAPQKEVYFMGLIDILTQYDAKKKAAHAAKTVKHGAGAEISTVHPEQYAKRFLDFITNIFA

| Compound | Kd |
| --- | --- |
| N[C@@H]1CCCN(c2c(/C=C3\SC(=O)NC3=O)cccc2-c2ccccc2)C1 | > 30 µM (inactive) |
| CCN1CCN(Cc2ccc(-c3cc4c(N[C@H](C)c5ccccc5)ncnc4[nH]3)cc2)CC1 [AEE-788] | > 30 µM (inactive) |
| COc1cc(N2CCC(N3CCN(C)CC3)CC2)ccc1Nc1ncnc(Nc2ccccc2S(=O)(=O)C(C)C)n1 [ASP-3026] | > 30 µM (inactive) |
| CNS(=O)(=O)Nc1nccc(Cc2c(C)c3ccc(Oc4ncccn4)cc3oc2=O)c1F [AVUTOMETINIB] | > 30 µM (inactive) |
| Cc1cc([C@@H](C)Nc2ccccc2C(=O)O)c2nc(N3CCOCC3)cc(=O)n2c1 [AZD-6482] | > 30 µM (inactive) |

target: S-adenosylmethionine synthase isoform type-2 (Homo sapiens, UniProt P31153)
Sequence (P31153 whole entry, canonical isoform): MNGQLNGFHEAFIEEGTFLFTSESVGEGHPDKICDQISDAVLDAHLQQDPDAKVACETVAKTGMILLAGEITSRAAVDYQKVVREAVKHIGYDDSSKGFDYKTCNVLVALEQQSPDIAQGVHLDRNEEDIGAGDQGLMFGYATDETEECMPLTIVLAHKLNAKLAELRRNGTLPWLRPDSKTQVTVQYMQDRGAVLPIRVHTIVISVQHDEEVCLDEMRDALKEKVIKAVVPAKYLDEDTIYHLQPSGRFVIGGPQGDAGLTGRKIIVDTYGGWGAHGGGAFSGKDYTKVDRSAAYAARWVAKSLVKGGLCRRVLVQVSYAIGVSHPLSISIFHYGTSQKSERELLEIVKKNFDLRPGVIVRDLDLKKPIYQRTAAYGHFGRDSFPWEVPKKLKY

| Compound | Kd |
| --- | --- |
| N[C@@H]1CCCN(c2c(/C=C3\SC(=O)NC3=O)cccc2-c2ccccc2)C1 | > 30 µM (inactive) |
| CCN1CCN(Cc2ccc(-c3cc4c(N[C@H](C)c5ccccc5)ncnc4[nH]3)cc2)CC1 [AEE-788] | > 30 µM (inactive) |
| COc1cc(N2CCC(N3CCN(C)CC3)CC2)ccc1Nc1ncnc(Nc2ccccc2S(=O)(=O)C(C)C)n1 [ASP-3026] | > 30 µM (inactive) |
| CNS(=O)(=O)Nc1nccc(Cc2c(C)c3ccc(Oc4ncccn4)cc3oc2=O)c1F [AVUTOMETINIB] | > 30 µM (inactive) |
| Cc1cc([C@@H](C)Nc2ccccc2C(=O)O)c2nc(N3CCOCC3)cc(=O)n2c1 [AZD-6482] | > 30 µM (inactive) |

target: T2, Bone morphogenetic protein receptor type-2 (Homo sapiens, UniProt Q13873)
T2 sequence (Q13873 whole entry): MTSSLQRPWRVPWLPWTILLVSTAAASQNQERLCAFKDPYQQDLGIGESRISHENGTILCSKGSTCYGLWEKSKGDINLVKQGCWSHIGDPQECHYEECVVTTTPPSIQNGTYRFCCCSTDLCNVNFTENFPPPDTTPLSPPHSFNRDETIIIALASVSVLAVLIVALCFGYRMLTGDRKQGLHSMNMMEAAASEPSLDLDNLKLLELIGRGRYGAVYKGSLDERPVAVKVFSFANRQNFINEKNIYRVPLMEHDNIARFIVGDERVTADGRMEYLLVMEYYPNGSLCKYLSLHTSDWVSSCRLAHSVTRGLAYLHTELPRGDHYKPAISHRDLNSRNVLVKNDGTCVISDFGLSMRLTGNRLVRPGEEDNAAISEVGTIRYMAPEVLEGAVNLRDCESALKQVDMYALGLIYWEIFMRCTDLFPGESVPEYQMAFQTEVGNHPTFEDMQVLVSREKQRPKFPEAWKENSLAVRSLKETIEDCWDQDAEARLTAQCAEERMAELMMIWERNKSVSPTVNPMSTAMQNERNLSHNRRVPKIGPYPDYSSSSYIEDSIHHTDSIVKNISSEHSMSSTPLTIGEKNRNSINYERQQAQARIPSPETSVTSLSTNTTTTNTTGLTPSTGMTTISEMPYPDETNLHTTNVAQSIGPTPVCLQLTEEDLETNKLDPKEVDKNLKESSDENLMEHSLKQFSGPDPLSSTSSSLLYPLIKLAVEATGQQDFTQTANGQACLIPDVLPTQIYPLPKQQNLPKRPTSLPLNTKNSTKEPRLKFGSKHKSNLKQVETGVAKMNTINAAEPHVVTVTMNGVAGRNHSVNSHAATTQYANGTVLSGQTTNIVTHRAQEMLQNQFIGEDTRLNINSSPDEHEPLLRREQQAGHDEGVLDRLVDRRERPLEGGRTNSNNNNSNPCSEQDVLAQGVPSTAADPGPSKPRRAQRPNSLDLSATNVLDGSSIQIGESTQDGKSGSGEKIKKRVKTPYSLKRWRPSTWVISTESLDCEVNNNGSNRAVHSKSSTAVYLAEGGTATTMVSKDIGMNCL

| Compound | Kd |
| --- | --- |
| N[C@@H]1CCCN(c2c(/C=C3\SC(=O)NC3=O)cccc2-c2ccccc2)C1 | > 30 µM (inactive) |
| CCN1CCN(Cc2ccc(-c3cc4c(N[C@H](C)c5ccccc5)ncnc4[nH]3)cc2)CC1 [AEE-788] | > 30 µM (inactive) |
| COc1cc(N2CCC(N3CCN(C)CC3)CC2)ccc1Nc1ncnc(Nc2ccccc2S(=O)(=O)C(C)C)n1 [ASP-3026] | > 30 µM (inactive) |
| CNS(=O)(=O)Nc1nccc(Cc2c(C)c3ccc(Oc4ncccn4)cc3oc2=O)c1F [AVUTOMETINIB] | > 30 µM (inactive) |
| Cc1cc([C@@H](C)Nc2ccccc2C(=O)O)c2nc(N3CCOCC3)cc(=O)n2c1 [AZD-6482] | > 30 µM (inactive) |

target: T3, STE20-related kinase adapter protein alpha (Homo sapiens, UniProt Q7RTN6)
T3 sequence (Q7RTN6 whole entry): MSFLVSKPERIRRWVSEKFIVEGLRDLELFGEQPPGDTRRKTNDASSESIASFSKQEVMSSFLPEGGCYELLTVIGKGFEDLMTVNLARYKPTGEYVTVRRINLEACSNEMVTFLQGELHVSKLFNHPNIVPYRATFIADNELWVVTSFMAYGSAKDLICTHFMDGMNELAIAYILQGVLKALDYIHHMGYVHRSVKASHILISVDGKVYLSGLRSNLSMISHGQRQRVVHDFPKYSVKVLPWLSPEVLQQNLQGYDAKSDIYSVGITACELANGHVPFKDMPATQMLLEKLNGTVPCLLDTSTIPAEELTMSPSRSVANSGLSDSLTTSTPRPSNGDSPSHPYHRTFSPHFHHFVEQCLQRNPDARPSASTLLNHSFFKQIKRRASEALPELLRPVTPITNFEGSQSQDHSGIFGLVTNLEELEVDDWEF

| Compound | Kd |
| --- | --- |
| N[C@@H]1CCCN(c2c(/C=C3\SC(=O)NC3=O)cccc2-c2ccccc2)C1 | > 30 µM (inactive) |
| CCN1CCN(Cc2ccc(-c3cc4c(N[C@H](C)c5ccccc5)ncnc4[nH]3)cc2)CC1 [AEE-788] | > 30 µM (inactive) |
| COc1cc(N2CCC(N3CCN(C)CC3)CC2)ccc1Nc1ncnc(Nc2ccccc2S(=O)(=O)C(C)C)n1 [ASP-3026] | > 30 µM (inactive) |
| CNS(=O)(=O)Nc1nccc(Cc2c(C)c3ccc(Oc4ncccn4)cc3oc2=O)c1F [AVUTOMETINIB] | > 30 µM (inactive) |
| Cc1cc([C@@H](C)Nc2ccccc2C(=O)O)c2nc(N3CCOCC3)cc(=O)n2c1 [AZD-6482] | > 30 µM (inactive) |

target: T4, Non-receptor tyrosine-protein kinase TNK1 (Homo sapiens, UniProt Q13470)
T4 sequence (Q13470 whole entry): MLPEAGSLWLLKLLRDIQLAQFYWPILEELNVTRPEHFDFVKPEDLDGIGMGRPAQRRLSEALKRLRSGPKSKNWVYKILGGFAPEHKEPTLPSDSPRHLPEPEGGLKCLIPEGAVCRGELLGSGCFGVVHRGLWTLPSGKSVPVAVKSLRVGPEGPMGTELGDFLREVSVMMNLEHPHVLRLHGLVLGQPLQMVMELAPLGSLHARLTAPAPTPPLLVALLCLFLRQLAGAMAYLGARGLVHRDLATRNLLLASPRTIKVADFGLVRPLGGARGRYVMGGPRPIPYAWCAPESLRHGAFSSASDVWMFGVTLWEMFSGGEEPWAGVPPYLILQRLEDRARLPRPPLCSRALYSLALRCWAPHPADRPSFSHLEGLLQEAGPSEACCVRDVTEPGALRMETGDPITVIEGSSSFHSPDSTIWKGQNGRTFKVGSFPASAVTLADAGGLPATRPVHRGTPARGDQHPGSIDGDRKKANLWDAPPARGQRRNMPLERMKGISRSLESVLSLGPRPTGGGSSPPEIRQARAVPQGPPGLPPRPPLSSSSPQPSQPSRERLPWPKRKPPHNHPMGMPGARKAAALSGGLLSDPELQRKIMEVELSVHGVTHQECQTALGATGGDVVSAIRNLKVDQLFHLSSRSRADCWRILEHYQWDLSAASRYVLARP

| Compound | Kd |
| --- | --- |
| N[C@@H]1CCCN(c2c(/C=C3\SC(=O)NC3=O)cccc2-c2ccccc2)C1 | > 30 µM (inactive) |
| CCN1CCN(Cc2ccc(-c3cc4c(N[C@H](C)c5ccccc5)ncnc4[nH]3)cc2)CC1 [AEE-788] | > 30 µM (inactive) |
| COc1cc(N2CCC(N3CCN(C)CC3)CC2)ccc1Nc1ncnc(Nc2ccccc2S(=O)(=O)C(C)C)n1 [ASP-3026] | 0.033 µM (active) |
| CNS(=O)(=O)Nc1nccc(Cc2c(C)c3ccc(Oc4ncccn4)cc3oc2=O)c1F [AVUTOMETINIB] | > 30 µM (inactive) |
| Cc1cc([C@@H](C)Nc2ccccc2C(=O)O)c2nc(N3CCOCC3)cc(=O)n2c1 [AZD-6482] | > 30 µM (inactive) |

target: RAC-alpha serine/threonine-protein kinase (Homo sapiens, UniProt P31749)
Sequence (P31749 whole entry): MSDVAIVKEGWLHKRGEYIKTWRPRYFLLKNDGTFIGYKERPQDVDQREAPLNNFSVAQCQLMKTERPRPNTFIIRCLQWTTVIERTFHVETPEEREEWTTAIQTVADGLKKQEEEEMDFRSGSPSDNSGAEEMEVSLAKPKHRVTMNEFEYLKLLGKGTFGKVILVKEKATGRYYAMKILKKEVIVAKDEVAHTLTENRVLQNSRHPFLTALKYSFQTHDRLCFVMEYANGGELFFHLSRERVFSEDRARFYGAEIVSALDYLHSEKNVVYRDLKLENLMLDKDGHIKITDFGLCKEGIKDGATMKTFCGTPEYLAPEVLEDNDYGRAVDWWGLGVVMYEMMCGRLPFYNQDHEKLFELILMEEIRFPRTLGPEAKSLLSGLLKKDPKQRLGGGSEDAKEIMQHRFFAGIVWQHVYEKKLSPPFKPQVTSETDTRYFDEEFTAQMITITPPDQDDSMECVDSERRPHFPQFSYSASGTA

| Compound | Kd |
| --- | --- |
| N[C@@H]1CCCN(c2c(/C=C3\SC(=O)NC3=O)cccc2-c2ccccc2)C1 | > 30 µM (inactive) |
| CCN1CCN(Cc2ccc(-c3cc4c(N[C@H](C)c5ccccc5)ncnc4[nH]3)cc2)CC1 [AEE-788] | > 30 µM (inactive) |
| COc1cc(N2CCC(N3CCN(C)CC3)CC2)ccc1Nc1ncnc(Nc2ccccc2S(=O)(=O)C(C)C)n1 [ASP-3026] | > 30 µM (inactive) |
| CNS(=O)(=O)Nc1nccc(Cc2c(C)c3ccc(Oc4ncccn4)cc3oc2=O)c1F [AVUTOMETINIB] | > 30 µM (inactive) |
| Cc1cc([C@@H](C)Nc2ccccc2C(=O)O)c2nc(N3CCOCC3)cc(=O)n2c1 [AZD-6482] | > 30 µM (inactive) |

target: Tyrosine-protein kinase JAK1 (Homo sapiens, UniProt P23458)
Sequence (P23458 whole entry): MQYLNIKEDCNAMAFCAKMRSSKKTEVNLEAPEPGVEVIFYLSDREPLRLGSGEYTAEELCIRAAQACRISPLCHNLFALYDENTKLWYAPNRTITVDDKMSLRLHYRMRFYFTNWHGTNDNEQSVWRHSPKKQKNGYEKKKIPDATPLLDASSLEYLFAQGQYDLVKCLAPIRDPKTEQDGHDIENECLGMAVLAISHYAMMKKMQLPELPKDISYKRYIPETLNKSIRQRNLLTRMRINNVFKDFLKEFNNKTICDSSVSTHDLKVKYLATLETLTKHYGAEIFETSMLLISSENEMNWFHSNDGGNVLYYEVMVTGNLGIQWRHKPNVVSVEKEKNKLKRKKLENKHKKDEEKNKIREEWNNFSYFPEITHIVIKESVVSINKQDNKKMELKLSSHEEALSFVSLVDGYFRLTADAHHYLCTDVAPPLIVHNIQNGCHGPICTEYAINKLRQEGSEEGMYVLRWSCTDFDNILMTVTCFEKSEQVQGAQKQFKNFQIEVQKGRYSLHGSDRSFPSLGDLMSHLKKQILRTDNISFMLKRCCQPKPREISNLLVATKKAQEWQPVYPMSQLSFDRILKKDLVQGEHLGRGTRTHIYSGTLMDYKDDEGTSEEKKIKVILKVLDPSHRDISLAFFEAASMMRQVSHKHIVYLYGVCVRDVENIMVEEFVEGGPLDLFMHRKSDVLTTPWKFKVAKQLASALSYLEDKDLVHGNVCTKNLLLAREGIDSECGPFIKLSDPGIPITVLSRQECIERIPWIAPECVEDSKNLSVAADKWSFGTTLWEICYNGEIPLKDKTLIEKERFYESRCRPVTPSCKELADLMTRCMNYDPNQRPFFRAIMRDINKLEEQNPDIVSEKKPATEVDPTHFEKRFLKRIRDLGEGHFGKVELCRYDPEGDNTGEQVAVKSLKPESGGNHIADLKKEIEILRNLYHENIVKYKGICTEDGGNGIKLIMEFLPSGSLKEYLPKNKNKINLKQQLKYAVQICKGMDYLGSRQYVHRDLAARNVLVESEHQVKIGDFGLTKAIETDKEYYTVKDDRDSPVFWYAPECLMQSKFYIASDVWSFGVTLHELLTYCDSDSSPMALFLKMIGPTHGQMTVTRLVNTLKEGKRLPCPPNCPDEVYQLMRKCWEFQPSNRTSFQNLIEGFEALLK

| Compound | Kd |
| --- | --- |
| N[C@@H]1CCCN(c2c(/C=C3\SC(=O)NC3=O)cccc2-c2ccccc2)C1 | > 30 µM (inactive) |
| CCN1CCN(Cc2ccc(-c3cc4c(N[C@H](C)c5ccccc5)ncnc4[nH]3)cc2)CC1 [AEE-788] | > 30 µM (inactive) |
| COc1cc(N2CCC(N3CCN(C)CC3)CC2)ccc1Nc1ncnc(Nc2ccccc2S(=O)(=O)C(C)C)n1 [ASP-3026] | > 30 µM (inactive) |
| CNS(=O)(=O)Nc1nccc(Cc2c(C)c3ccc(Oc4ncccn4)cc3oc2=O)c1F [AVUTOMETINIB] | > 30 µM (inactive) |
| Cc1cc([C@@H](C)Nc2ccccc2C(=O)O)c2nc(N3CCOCC3)cc(=O)n2c1 [AZD-6482] | > 30 µM (inactive) |
